{
  "source": "patent US20180104240A1",
  "about": "“AMELIORATION OF RADIATION-INDUCED COGNITIVE DYSFUNCTION” (NEURALSTEM, INC., priority 2016, published 2018)",
  "format_in_all_cases": "in vivo, rat",
  "key": {"[1]": {"system": "Long Evans (LE) rats", "test": "Novel Place Recognition (NPR) spontaneous exploration task after head-only irradiation", "description": "(§1) Ten (10) week old Long Evans (LE) rats (Crl:LE, Strain Code: 006; Charles River) were divided randomly into three groups (n=16/group):\n(§2) Controls (Con) received oral gavage (vehicle only) and sham radiation.\n(§3) Radiation recipients with no drug (IRR) administered oral gavage (vehicle only) and 27 Gy head-only fractionated radiation.\n(§4) Radiation recipients having administered drug (IRR+NSI-189) received the compound of formula (2) wherein R^1=amyl as the phosphate salt by oral gavage. Drug was administered at 30 mg/kg (amount based exclusive of phosphate) and 27 Gy head-only fractionated radiation administered as in the IRR group. Rats in this group were administered NSI-189 in sterile vehicle (normal saline) as a 1× solution (15 mg/ml) starting 24 hours after the final dose of radiation and daily thereafter for 30 days. Sterile gavage needles with protected tips were used and the drug administered for less than a minute. […]\n(§5) Rats were subjected to cognitive testing using spontaneous exploration tasks outlined below 1 week after termination of oral gavage (5 weeks post irradiation) over the course of 3 weeks. […] All data were collected using Noldus Ethovision v8.5 and later hand scored by a technician blind to the treatment groups. […]"}, "[2]": {"system": "Long Evans (LE) rats", "test": "Temporal Order (TO) spontaneous exploration task after head-only irradiation", "description": "as §1, §2, §3, §4, §5"}, "[3]": {"system": "Long Evans (LE) rats", "test": "Object in Place (OiP) spontaneous exploration task after head-only irradiation", "description": "as §1, §2, §3, §4, §5"}, "[4]": {"system": "proliferating (BrdU+) cells present in the hippocampal dentate gyrus", "test": "Neurogenesis: BrdU and BrdU/NeuN immunohistochemical labeling after head-only irradiation", "details": "irradiated rats, 30 mg/kg oral, 30 days", "experimental": "as §1\nRadiation recipients having administered drug (IRR+NSI-189) received the compound of formula (2) wherein R^1=amyl as the phosphate salt by oral gavage. Drug was administered at 30 mg/kg (amount based exclusive of phosphate) and 27 Gy head-only fractionated radiation administered as in the IRR group. Rats in this group were administered NSI-189 in sterile vehicle (normal saline) as a 1× solution (15 mg/ml) starting 24 hours after the final dose of radiation and daily thereafter for 30 days. Sterile gavage needles with protected tips were used and the drug administered for less than a minute.\nFor IRR and IRR+NSI-189, rats were anesthetized [2.5% (vol/vol) isoflurane/oxygen], placed ventrally on the treatment table (X-RAD 320 irradiator; Precision X-Ray) without restraint, and positioned under a collimated (1.0 cm^2 diameter) beam for head-only radiation delivered at a dose rate of 1.0 Gy/min. Fractionation of 27 Gy was delivered over 3 separate doses of […] that were administered 48 hours apart. […]\nRemaining animals that were not used for Golgi-Cox staining (n=12/group) were given a barbiturate overdose and were perfused/fixated using 4% paraformaldehyde and tissue removed. Tissue was analyzed by immunohistochemistry."}, "[5]": {"system": "Long Evans (LE) rats", "test": "Novel Object Recognition (NOR) spontaneous exploration task after head-only irradiation", "description": "as §1, §2, §3, §4, §5"}, "[6]": {"details": "IRR lower than IRR+NSI-189 (P<0.05), 30 mg/kg oral, 30 days, 27 Gy"}},
  "data": [
    {"smiles": "CC(C)CCNc1ncccc1C(=O)N1CCN(Cc2ccccc2)CC1", "note": "[NSI-189]", "values": [
      {"measurement": "NPR exploration ratio of IRR+NSI-189 compared with Con (statistics, in words)", "setting": "[1]; [6]", "value": "did not differ significantly from Con"},
      {"measurement": "Exploration Ratio mean (NPR)", "setting": "[1]; rats, 27 Gy head-only fractionated radiation, 30 mg/kg oral gavage daily for 30 days starting 24 hours after final radiation dose, tested 5 weeks post irradiation, 1 hour retention", "value": "mean = 60.69"},
      {"measurement": "TO exploration ratio of IRR+NSI-189 compared with Con (statistics, in words)", "setting": "[2]; 30 mg/kg oral, 30 days, 27 Gy", "value": "did not differ statistically"},
      {"measurement": "Exploration Ratio mean (TO)", "setting": "[2]; rats, 27 Gy head-only fractionated radiation, 30 mg/kg oral gavage daily for 30 days, object sets 3 hours apart, test after additional 1 hour", "value": "mean = 67.95"},
      {"measurement": "OiP exploration ratio of IRR+NSI-189 compared with Con (statistics, in words)", "setting": "[3]; [6]", "value": "showed no significant differences"},
      {"measurement": "Exploration Ratio mean (OiP)", "setting": "[3]; rats, 27 Gy head-only fractionated radiation, 30 mg/kg oral gavage daily for 30 days", "value": "mean = 64.60"},
      {"measurement": "yield of BrdU+/NeuN+ cells (mature neurons) in the hippocampal dentate gyrus", "setting": "[4]; dual immunohistochemical labeling", "value": "returned the yield of BrdU^+/NeuN^+ cells to pre-irradiation levels"},
      {"measurement": "number of proliferating (BrdU+) cells in the hippocampal dentate gyrus", "setting": "[4]; radiation alone gave significant (P<0.05) reduction", "value": "returned to pre-irradiation levels"},
      {"measurement": "NOR exploration ratio of IRR+NSI-189 compared with Con (statistics, in words)", "setting": "[5]; IRR lower than IRR+NSI-189 (P<0.01), 30 mg/kg oral, 30 days, 27 Gy", "value": "statistically indistinguishable"},
      {"measurement": "Exploration Ratio mean (NOR)", "setting": "[5]; rats, 27 Gy head-only fractionated radiation, 30 mg/kg oral gavage daily for 30 days, 5 min retention interval", "value": "mean = 71.28"}
    ]}
  ]
}
